Read-outs that look alike come from different tables or passages of the source.
Legend:
[1] = Cerebrospinal fluid and plasma distribution in vivo; conditions: rat, male rats, intravenous 5 mg/kg, n = 1
PARP1 = target: T1, PARP1 (Homo sapiens, UniProt P09874); experiment: PARP1 enzyme assay (histone-coated plate, chemiluminescence); type: biochemical; conditions: PARP1 0.02 nM, DNA 0.8 nM, NAD+ 3.5 µM; read-out: PARP-1 IC50
T1 construct: purchased BPS 80501

[2] = cerebrospinal fluid, read-out: Cerebrospinal fluid

T1 sequence (P09874 whole entry): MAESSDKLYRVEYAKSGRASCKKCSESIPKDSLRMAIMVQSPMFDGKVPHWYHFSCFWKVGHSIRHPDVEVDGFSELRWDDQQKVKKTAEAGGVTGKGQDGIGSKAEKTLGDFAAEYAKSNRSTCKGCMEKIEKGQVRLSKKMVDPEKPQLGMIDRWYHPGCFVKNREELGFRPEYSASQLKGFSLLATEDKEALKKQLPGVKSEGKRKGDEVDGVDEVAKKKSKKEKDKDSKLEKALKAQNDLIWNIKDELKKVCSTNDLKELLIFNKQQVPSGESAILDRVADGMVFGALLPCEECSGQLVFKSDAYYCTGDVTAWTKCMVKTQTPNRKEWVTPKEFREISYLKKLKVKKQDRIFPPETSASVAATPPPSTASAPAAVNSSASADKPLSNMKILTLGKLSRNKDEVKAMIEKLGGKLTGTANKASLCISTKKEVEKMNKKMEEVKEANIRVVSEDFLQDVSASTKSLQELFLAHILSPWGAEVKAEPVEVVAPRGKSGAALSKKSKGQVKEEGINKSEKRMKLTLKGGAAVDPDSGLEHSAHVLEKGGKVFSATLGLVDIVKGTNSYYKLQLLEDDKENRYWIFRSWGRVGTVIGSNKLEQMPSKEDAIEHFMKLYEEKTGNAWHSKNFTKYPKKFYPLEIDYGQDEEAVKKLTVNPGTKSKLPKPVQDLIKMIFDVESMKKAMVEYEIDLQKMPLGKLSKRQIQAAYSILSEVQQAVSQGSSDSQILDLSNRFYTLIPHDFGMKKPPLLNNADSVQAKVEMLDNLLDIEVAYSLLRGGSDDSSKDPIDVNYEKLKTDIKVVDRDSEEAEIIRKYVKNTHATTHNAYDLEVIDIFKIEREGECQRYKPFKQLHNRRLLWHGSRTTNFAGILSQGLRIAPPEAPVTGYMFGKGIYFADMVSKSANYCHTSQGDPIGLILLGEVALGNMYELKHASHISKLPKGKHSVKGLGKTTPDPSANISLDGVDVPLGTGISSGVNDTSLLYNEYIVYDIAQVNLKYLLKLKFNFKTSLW

## CNC(=O)c1ccc(N2CCN(CC3Cc4[nH]c(=O)c(C)cc4CO3)CC2)c(Cl)n1 (centres unmarked) [Example 74, 6-Chloro-N-methyl-5-(4-((3-methyl-2-oxo-1,5,7,8-tetrahydro-2H-pyrano[4,3-b]pyridin-7-yl)methyl)piperazin-1-yl)picolinamide]
[1]; [2]
  concentration at 0.25 h: 60 ng/g
  concentration at 2 h: 19 ng/g
[1]; plasma, read-out: Plasma
  concentration at 0.25 h: 8.79 µg/mL
  concentration at 2 h: 5.56 µg/mL
PARP1
  IC50: ≤ 0.05 µM

— patent EP4768487A1, “FUSED LACTAM RING COMPOUND AND USE THEREOF” (Chengdu Zenitar Biomedical Technology Co., Ltd., priority 2023, dated 2025)
